Patent publication US8580857B2 (priority 2001, dated 2013)
Marks after values point to notes of the source that are not given here.

How the values were obtained:
[1] = system: human prostate PC3 xenograft tumors; assay: Non-apoptotic and apoptotic cell counts in histologic sections of residual PC3 tumors; assay type: in vivo, immunodeficient mice; details: mean ± SD
Protocol: Because a post-treatment residual tumor consisted of apoptotic and non-apoptotic cells, the effects of different treatments on the fractions of non-apoptotic (and therefore not committed to death) and apoptotic (dead or committed) cells were evaluated. Briefly, residual tumors were removed from animals after termination of treatment, and histologic tumor sections were prepared. Tumor sections were examined microscopically under 400× magnification. For each tumor, at least 4 sections were evaluated. Apoptotic cells were identified by their characteristic morphologies, i.e., presence of apoptotic bodies, condensed nuclei and fragmented nuclei.

[2] = system: acidic and basic fibroblast growth factors (aFGF and bFGF); details: tumor cells, aFGF and bFGF induced resistance; cited from earlier work
clinical = assay type: in vivo, human
Text: This method was then verified prospectively in three additional patients (see Example IV).
However, the CL was lower in females compared to males.

[3] = Prospective verification of the PBPK-based dosing method, plasma concentrations; assay type: in vivo, human; details: for concentration at 48 h: human, plasma, intravenous
Protocol: Three additional non-small cell lung cancer patients were treated using the dose calculated by the PBPK-based method.

[4] = system: human prostate PC3 xenograft tumors; assay: Antitumor activity in subcutaneous human prostate PC3 xenograft (tumor size over time); assay type: in vivo, immunodeficient mice
Protocol: The dose of paclitaxel was 15 mg/kg and was given twice weekly for three weeks. […] Example 1 further expounds on FIG. 1.
The relevant tumor model used was human prostate PC3 xenograft implanted subcutaneously in immunodeficient mice. […] The dose of paclitaxel was 15 mg/kg and was given twice weekly for three weeks.

[5] = Phase I trial, toxicity of low dose suramin with paclitaxel and carboplatin; assay type: in vivo, human
Text: Fifteen patients, with metastases to pleura, pericardium, adrenals, lymph nodes, liver, bone, and/or brain, were enrolled in the phase I trial. This group includes 4 stage IIIb and 11 stage IV patients. […] All patients were evaluable for pharmacokinetics and toxicity. […] Accordingly, it was not necessary to administer replacement steroid therapy to patients who received low dose suramin. This is contrary to the case where replacement steroid therapy was routinely given to patients who received high dose suramin (Dorr and Von Hoff).

cell cycle = details: constant concentrations of above 50 μM maintained for at least one or two days; cited from earlier work
[6] = Literature, cited from earlier work
[7] = Population-based pharmacokinetic (PBPK) analysis of low dose suramin, NONMEM
Text: The first step is to define the appropriate error model for the pharmacokinetic parameters of interest. […] Only the covariates whose elimination results in significant deterioration in model performance are included in the final model (referred to as Population Model).
The PBPK for a one-compartment model depicting plasma concentrations as a function of clearance (CL) and volume of distribution (V) is as follows: • where Cij is the predicted plasma concentration at a particular time time i for a patient j.
Error functions were used to describe the random deviations between model-predicted and observed data for individual pharmacokinetic parameters. Because the objective was to identify the dose, which can be calculated based on CL and V, the analysis focused on these two parameters. […] CLj=CL^typ*(1+ηCL) Eq. 2 Vj=V^typ*(1+ηV) Eq. 3 where ηCL and ηV are random values normally distributed around a mean of zero with a variance of ω^2.
Multiple plasma concentration-time data points were used in PBPK analysis. These time points were 18, 24, 48 and 72 hours after the first treatment, 72 hours and immediately prior to next treatment, and 48 and 72 hours after second and subsequent treatments. The relationship between observed plasma concentrations and PBPK-predicted values (residual variability) is depicted by Equation 4. Yij=Cij*(1+ε1ij) Eq. 4 where Yij and Cij are the observed and predicted concentrations of the j^th individual at the i^th sampling time. ε1ij is the residual errors with a mean of zero and a variance of σ^2. The above equations used an error function in the form of (1+error), which represents the proportional error model where the coefficient of variation is constant and independent of the size of the fixed effect parameter. […] Model Building: Identification of Significant Covariates
The contribution of ten covariates to the inter-individual variability in CL and V was studied. These covariates were age, gender, weight, ideal body weight, height, body surface area (BSA), creatinine concentration, creatinine clearance (CrCL), and serum albumin concentration. Linear regression analysis was used to examine the relationships between covariates and pharmacokinetic parameters in individual patients.
To determine whether a covariate should be incorporated into the model, the log likelihood ratio test was used and the chi-square χ^2 values were calculated by taking the difference in the objective function values of the models, obtained with or without adding the candidate covariate.
CL^typ=(θ1*BSA+θ2*CrCL+θ3)*(1−θ4) Eq. 7 V^typ=θ5*BSA^2+θ6 Eq. 8 […]
To obtain estimates for k^typ, the k values for individual patients were calculated by substituting their corresponding BSA values into Equations 13 and 14.

in vivo = details: mouse
[8] = high dose suramin regimen 200 mg/kg then 5 x 130 mg/kg over three weeks, combination: plus paclitaxel 15 mg/kg
[9] = low dose suramin regimen 10 mg/kg twice weekly for three weeks, combination: plus paclitaxel 15 mg/kg
[10] = Patient 1, cycle 1, BSA 1.45, dose 263 mg
[11] = Patient 1, cycles 3 to 6, dose 151-156 mg
[12] = Patient 2, cycle 1, BSA 1.67, dose 210 mg
[13] = Patient 2, cycles 2 to 6, dose 227-257 mg
[14] = Patient 3, cycle 1, BSA 1.83, dose 230 mg
[15] = high dose suramin >2,000 mg per m^2
[16] = Population Model, first 12 patients
[17] = paclitaxel alone 15 mg/kg twice weekly for three weeks

SMILES: Cc1ccc(C(=O)Nc2ccc(S(=O)(=O)O)c3cc(S(=O)(=O)O)cc(S(=O)(=O)O)c23)cc1NC(=O)c1cccc(NC(=O)Nc2cccc(C(=O)Nc3cc(C(=O)Nc4ccc(S(=O)(=O)O)c5cc(S(=O)(=O)O)cc(S(=O)(=O)O)c45)ccc3C)c2)c1 [suramin]
- Number of apoptotic cells in a 400x field [1, 8]: 22 ± 9
- Number of non-apoptotic cells in a 400x field [1, 8]: 19 ± 9
- Number of apoptotic cells in a 400x field [1, 9]: 21 ± 16
- Number of non-apoptotic cells in a 400x field [1, 9]: 62 ± 44
- concentrations of suramin that overcome FGF-mediated resistance to chemotherapy [2]: less than 50 μM
- half-life (clinical; both sexes, human, in vivo, Alpha half-life): 4.4 h
- half-life (clinical; both sexes, human, in vivo, Beta half-life): 264 h
- maximum inter-individual variability of clearance (CL) (clinical; both, human, in vivo): 182%
- inter-individual variability of clearance (CL) (clinical; female, human, in vivo): 2%
- half-life (clinical; female, human, in vivo, Alpha half-life): 4.6 ± 2 h
- half-life (clinical; female, human, in vivo, Beta half-life): 336 h
- area under the terminal phase as share of the total area-under-curve (clinical; human, in vivo): ~90%
- concentration at 48 h (clinical; human, in vivo): > 10 µM
- maximum inter-subject variability in the steady state volume of distribution (Vss) (clinical; human, in vivo): 153%
- inter-individual variability of clearance (CL) (clinical; male, human, in vivo): 13%
- half-life (clinical; male, human, in vivo, Alpha half-life): 4.3 ± 0.6 h
- half-life (clinical; male, human, in vivo, Beta half-life): 240 h
- Concentration, Post-paclitaxel [3, 10]: 33.95 µM
- Concentration, Pre-dose [3, 10]: 0.00 µM
- Concentration, Post-paclitaxel [3, 11]: 21.5 to 26.3 µM
- Concentration, Pre-dose [3, 11]: 1.87 to 3.19 µM
- Concentration, Post-paclitaxel [3, 12]: 40.39 µM
- Concentration, Pre-dose [3, 12]: 0.00 µM
- Concentration, Post-paclitaxel [3, 13]: 26.7 to 28.5 µM
- Concentration, Pre-dose [3, 13]: 2.65 to 3.81 µM
- Concentration, Post-paclitaxel [3, 14]: 36.02 µM
- Concentration, Pre-dose [3, 14]: 0.00 µM
- maximum concentrations after administration of paclitaxel ([3]; all 13 treatments in three patients, PBPK-calculated dose, two-thirds / one-third split): below 50 μM
- concentration at 48 h ([3]; Patient 1, cycle 1, BSA 1.45, dose 263 mg, read-out: Concentration, 48 hours): 13.9 µM
- concentration at 48 h ([3]; Patient 1, cycles 3 to 6, dose 151-156 mg, read-out: Concentration, 48 hours): 10.2 to 11.5 µM
- concentration at 48 h ([3]; Patient 2, cycle 1, BSA 1.67, dose 210 mg, read-out: Concentration, 48 hours): 15.5 µM
- concentration at 48 h ([3]; Patient 2, cycles 2 to 6, dose 227-257 mg, read-out: Concentration, 48 hours): 12.9 to 15.6 µM
- concentration at 48 h ([3]; Patient 3, cycle 1, BSA 1.83, dose 230 mg, read-out: Concentration, 48 hours): 19.4 µM
- concentration at 48 h ([3]; all 13 treatments in three patients, PBPK-calculated dose, two-thirds / one-third split, read-out: 48-hour plasma concentrations): > 10 µM
- antitumor effect (tumor growth) ([4]; high dose suramin regimen: loading dose 200 mg/kg, then 5 doses of 130 mg/kg over three weeks, combination: plus paclitaxel 15 mg/kg twice weekly for three weeks): slower tumor growth
- tumor size, % of the initial tumor size ([4]; low dose suramin regimen: 10 mg/kg twice weekly for three weeks, combination: plus paclitaxel 15 mg/kg twice weekly for three weeks): about 800%
- dose-limiting toxicity ([5]; low dose suramin with paclitaxel 200 mg/m^2 and carboplatin AUC 6 every three weeks, fifteen patients): No dose-limiting toxicity
- adrenal insufficiency ([5]; patients receiving the low dose suramin treatment): no adrenal insufficiency
- effect on cell cycle (cell cycle): induce cell cycle arrest
- Alpha half-life [6, 15]: 5.5 ± 1.7 h
- Beta half-life [6, 15]: 98.4 ± 52.8 h
- Gamma half-life [6, 15]: 1870 ± 1100 h
- Total body clearance [6, 15]: 0.01 ± 0.004 l/hr/m^2
- Cumulative AUC ([6]; high dose suramin, total dose >2,000 mg per m^2 per 3-week interval, calculated as 200 μg/ml x 3 weeks from the reference): 101* mg-hr/ml
- k^typ (elimination rate constant), Estimate ([7]; Female): 0.0022 h⁻¹
- k^typ (elimination rate constant), Estimate ([7]; Male): 0.0026 h⁻¹
- θ1 (effect of BSA on CL^typ), Estimate [7, 16]: 26.2 mL/h * m^2
- θ5 (effect of BSA^2 on V^typ), Estimate [7, 16]: 5.13 L/m^4

SMILES: N.N.O=C([O-])C1(C(=O)[O-])CCC1.[Pt+2] [carboplatin]
- areas-under-plasma concentration-time curves attained in the first 48 hours after drug administration (clinical; first six patients): > 99%

SMILES: CC(=O)O[C@H]1C(=O)[C@@]2(C)[C@H]([C@H](OC(=O)c3ccccc3)[C@]3(O)C[C@H](OC(=O)[C@H](O)[C@@H](NC(=O)c4ccccc4)c4ccccc4)C(C)=C1C3(C)C)[C@]1(OC(C)=O)CO[C@@H]1C[C@@H]2O [Paclitaxel, paclitaxel]
- Number of apoptotic cells in a 400x field [1, 17]: 30 ± 17
- Number of non-apoptotic cells in a 400x field [1, 17]: 14 ± 10
- areas-under-plasma concentration-time curves attained in the first 48 hours after drug administration (clinical; human, in vivo): > 92%
- antitumor effect (tumor growth) ([4]; paclitaxel alone 15 mg/kg twice weekly for three weeks, p<0.05 vs control): suppressed tumor growth
- concentration at 5 min (in vivo): ~7000 ng/mL
- concentration at 5 h (in vivo): 200 ng/mL
- concentration at 6 h (in vivo): < 100 ng/mL
